Results: US9730455B2, “Composition comprising a biological control agent and an insecticide” (Bayer CropScience AG, priority 2012, dated 2017)
Like-named read-outs stand apart in the source and are kept apart here.

What was measured:
Type in all cases: in vivo
[1] = tested on: mustard beetle larvae (Phaedon cochleariae); assay: Phaedon cochleariae - spray test; settings: foliar; for mortality at 0.8 g/ha: 0.8 g ai/ha, after 6 d
Description: (§1) Formula for the efficacy of the combination of two compounds • The expected efficacy of a given combination of two compounds is calculated as follows (see Colby, S.R., “Calculating Synergistic and antagonistic Responses of Herbicide Combinations”, Weeds 15, pp. 20-22, 1967): • If • X is the efficacy expressed in % mortality of the untreated control for test compound A at a concentration of m ppm respectively m g/ha, • Y is the efficacy expressed in % mortality of the untreated control for test compound B at a concentration of n ppm respectively n g/ha, • E is the efficacy expressed in % mortality of the untreated control using the mixture of A and B at m and n ppm respectively m and n g/ha, • then is
• Solvent: 78.0 parts by weight of acetone • 1.5 parts by weight of dimethylformamide • Emulsifier: alkylaryl polyglycol ether
(§2) To produce a suitable preparation of active compound, 1 part by weight of active compound is mixed with the stated amount of solvents and is diluted with water, containing an emulsifier concentration of 1000 ppm, to the desired concentration. To produce a suitable preparation of a spore suspension the spores are diluted with emulsifier containing water to the desired concentration. Further test concentrations are prepared by dilution with emulsifier containing water.
Chinese cabbage (Brassica pekinensis) leaf-disks are sprayed with a preparation of the active ingredient of the desired concentration. Once dry, the leaf disks are infested with mustard beetle larvae (Phaedon cochleariae).
After the specified period of time, mortality in % is determined. 100% means all beetle larvae have been killed and 0% means none of the beetle larvae have been killed. The mortality values determined thus are recalculated using the Colby-formula (see sheet 1).

[2] = tested on: fall armyworm larvae (Spodoptera frugiperda); assay: Spodoptera frugiperda - spray test; settings: maize leaf sections; for mortality at 3.75 g/ha: 3.75 g ai/ha
Description: as §1
(§3) • Solvent: 78.0 parts by weight acetone • 1.5 parts by weight dimethylformamide • Emulsifier: alkylaryl polyglycol ether
as §2
Maize (Zea mais) leaf sections are sprayed with a preparation of the active ingredient of the desired concentration. Once dry, the leaf sections are infested with fall armyworm larvae (Spodoptera frugiperda).
After the specified period of time, mortality in % is determined. 100% means all caterpillars have been killed and 0% means none of the caterpillars have been killed. The mortality values determined thus are recalculated using the Colby-formula (see sheet 1).

[3] = tested on: green peach aphid (Myzus persicae); assay: Myzus persicae - spray test; settings: foliar, 24 h, after 1 d, Chinese cabbage leaf disks, read-out: Efficacy in % after 1^d (mortality)
Description: as §1, §3
as §2, with “Further test concentrations are prepared by dilution with emulsifier containing water.” left out
After the specified period of time, mortality in % is determined. […] The mortality values determined thus are recalculated using the Colby-formula (see sheet 1).

[4] = tested on: two spotted spidermite (Tetranychus urticae), OP-resistant; assay: Tetranychus urticae - spray test, OP-resistant; settings: French beans
Description: as §1, §3, §2
French beans (Phaseolus vulgaris) which are heavily infested with all stages of the two spotted spidermite (Tetranychus urticae), are sprayed with a preparation of the active ingredient of the desired concentration.
After the specified period of time, mortality in % is determined. 100% means all spider mites have been killed and 0% means none of the spider mites have been killed. The mortality values determined thus are recalculated using the Colby-formula (see sheet 1).

[5] = 144 h, Chinese cabbage leaf disks, read-out: Efficacy in % after 6^d (mortality)

CNC(=O)c1cc(Cl)cc(C)c1NC(=O)c1cc(Br)nn1-c1ncccc1Cl [Chlorantraniliprole] gave a mortality at 0.8 g/ha [1, 5] of 33%, a mortality at 0.8 g/ha ([2]; Spodoptera frugiperda, 48 h, 0.8 g ai/ha, after 2 d, read-out: Efficacy in % after 2^d (mortality)) of 67% and a mortality at 0.16 g/ha ([2]; Spodoptera frugiperda, 144 h, 0.16 g ai/ha, after 6 d, read-out: Efficacy in % after 6^d (mortality)) of 0%.
With CN/C(=N\[N+](=O)[O-])NCc1cnc(Cl)s1 [Clothianidin] the mortality at 20 g/ha ([2]; Spodoptera frugiperda, 144 h, 20 g ai/ha, after 6 d, read-out: Efficacy in % after 6^d (mortality)) was 0%.
CNC(=O)c1cc(C#N)cc(C)c1NC(=O)c1cc(Br)nn1-c1ncccc1Cl [Cyantraniliprole] was tested, and the mortality at 4 g/ha ([1]; 48 h, 4 g ai/ha, after 2 d, Chinese cabbage leaf disks, read-out: Efficacy in % after 2^d (mortality)) was 0% and the mortality at 0.8 g/ha [1, 5] was 0%.
Work on CNC(=O)Oc1cc(C)c(SC)c(C)c1 [Methiocarb] yielded a mortality at 10 g/ha ([1]; in Brassica rapa, 144 h, read-out: Efficacy in % after 6^d (mortality)) of 50%.
N#C/N=C1\SCCN1Cc1ccc(Cl)nc1 [Thiacloprid] showed a mortality at 4 g/ha ([3]; 4 g ai/ha) of 0% and a mortality at 20 g/ha ([4]; Tetranychus urticae, 48 h, 20 g ai/ha, after 2 d, read-out: Efficacy in % after 2^d (mortality)) of 40%.
With CN1COCN(Cc2cnc(Cl)s2)/C1=N\[N+](=O)[O-] [Thiamethoxam] the mortality at 0.8 g/ha ([3]; 0.8 g ai/ha) was 0%.
CS/C(C)=N\OC(=O)N(C)SN(C)C(=O)O/N=C(\C)SC [Thiodicarb] was tested, and the mortality at 3.75 g/ha ([2]; Spodoptera frugiperda, 48 h, after 2 d, read-out: Efficacy in % after 2^d (mortality)) was 0%, the mortality at 7.5 g/ha ([2]; Spodoptera frugiperda, 48 h, 7.5 g ai/ha, after 2 d, read-out: Efficacy in % after 2^d (mortality)) was 67% and the mortality at 3.75 g/ha ([2]; Spodoptera frugiperda, 144 h, after 6 d, read-out: Efficacy in % after 6^d (mortality)) was 0%.
In the case of Spinetoram, the “Efficacy in % after 6^d (mortality)” value ([2]; 0.032 g ai/ha, after 6 d) is reported as 0%, the “Efficacy in % after 2^d (mortality)” value ([2]; 0.08 g ai/ha, after 2 d) is reported as 67% and the “Efficacy in % after 6^d (mortality)” value ([4]; 0.08 g ai/ha) is reported as 0%. The “Efficacy in % after 2^d (mortality)” value ([4]; 0.4 g ai/ha, after 2 d) was 0%.
For Spinosad, the “Efficacy in % after 6^d (mortality)” value ([2]; 0.8 g ai/ha, after 6 d) was 0%, the “Efficacy in % after 2^d (mortality)” value ([2]; 4 g ai/ha, after 2 d) was 50% and the “Efficacy in % after 6^d (mortality)” value ([4]; 20 g ai/ha) was 0%.
